Key:
Gordonia nitida NP1 = test: Biosurfactant's ability to increase diesel oil degradation by Gordonia nitida NP1; assay type: cell-based; details: acid 9 ppm
Protocol: (§1) For this reason, 2-hexyl-3-hydroxy-decanoic acid having 16 carbon atoms according to the present invention was added liquid media each containing 10,000 ppm or 20,000 ppm of diesel oil and mineral medium (NH4NO3, 1 g/L; MgSO4, 0.2 g/L; CaCl2, 0.02 g/L; FeCl2, 0.05 g/L; KH2PO4, 1 g/L; K2HPO4, 1 g/L; pH 7.0). Then, the media were inoculated with each of Rodococcus baikoneurensis EN3 of Example 2 and Gordonia nitida NP1 of Example 6 and cultured at 30° C. for 7 days. Then, an increase in the oil biodegradability of each of the microbial strains was measured using gas chromatography.
FIG. 10 is a graphic diagram showing an increase in the diesel oil degradability of Gordonia nitida NP1, caused by the synthetic biosurfactant 2-hexyl-3-hydroxy-decanoic acid, at an initial diesel concentration of 15,000 ppm. In FIG. 10, the initial inoculation level of […] is 6×10^4 cfu/ml, and the initial concentration of diesel oil is 15,000 ppm. Also, the initial concentrations of 2-hexyl-3-hydroxy-decanoic acid were 9 ppm (▾), 90 ppm (∇) and 900 ppm (▪), the symbol “[…]” indicates a microorganism-uninoculated group (control group 1), and the symbol “∘” indicates a group (control group 2), which was inoculated with microorganisms, but not injected with 2-hexyl-3-hydroxy-decanoic acid. […]

[1] = tested on: mixed cultured strain of Examples 2, 6 and 7; test: Microbial growth promotion of biosurfactant 2-hexyl-3-hydroxy-decanoic acid (cfu per ml after culture); assay type: cell-based; details: 0.1 in composition of Examples 16 and 17
Protocol: These examples relate to an experiment of confirming whether the growth of microorganisms having oil biodegradability is promoted due to the addition of biosurfactant 2-hexyl-3-hydroxy-decanoic acid.
In this experiment, the mixed cultured strain of Examples 2, 6 and 7 was added to tryptic soy broth (TSB) and then cultured for 13 hours. In the culture process, the microbial strain was added into a 100-ml flask at an initial concentration of 4.9×10^6 cfu/ml to a work volume of 10 ml, and the inoculation level of the strain was 1% (w/v), i.e., 0.1 ml.
In Comparative Examples 7-10 and Examples 16 and 17, the microbial strain was cultured in media (10 g/L) at 30° C. for 24 hours, and then measured for colony-forming units (cfu) per ml to determine the degree of proliferation of microorganisms.
Specifically, a composition used in Comparative Examples 7-10 consisted of glucose, yeast extract, malt extract, Na2HPO4, KH2PO4, K2HPO4, MgSO4, CaCl2, FeSO4, CoCl2, ZnSO4, CuSO4 and MnSO4, and a composition used in Examples 16 and 17 consisted of glucose, yeast extract, malt extract, Na2HPO4, KH2PO4, K2HPO4, MgSO4, CaCl2, FeSO4, CoCl2, ZnSO4, CuSO4 and MnSO4, to which the biosurfactant 2-hexyl-3-hydroxy-decanoic acid was added.

[2] = tested on: Rodococcus baikoneurensis EN3; test: Biosurfactant's ability to increase diesel oil degradation by Rodococcus baikoneurensis EN3; assay type: cell-based; details: initial diesel 20,000 ppm; acid 10 ppm, 50 ppm and 100 ppm; about 30% without acid
Protocol: as §1
FIG. 9 is a graphic diagram showing an increase in the diesel oil degradability of Rodococcus baikoneurensis EN3, caused by the synthetic biosurfactant 2-hexyl-3-hydroxy-decanoic acid, at an initial diesel concentration of 20,000 ppm. In FIG. 9, the initial inoculation level of Rodococcus baikoneurensis EN3 is 6×10^4 cfu/ml, and the initial concentration of diesel oil is 20,000 ppm. Also, the initial concentrations of 2-hexyl-3-hydroxy-decanoic acid are 10 ppm (∘), 50 ppm (□) and 100 ppm (Δ), the symbol “•” indicates a microorganism-uninoculated group (control group 1), and the symbol “▪” indicates a group (control group 2), which was inoculated with microorganisms, but not injected with 2-hexyl-3-hydroxy-decanoic acid.

[3] = Critical micelle concentration; assay type: physicochemical

critical micelle concentration (cmc) [3]: 37.1 ppm
Structure (SMILES): CCCCCCCC(O)C(CCCCCC)C(=O)O (centres unmarked) [2-hexyl-3-hydroxy-decanoic acid]
change in diesel oil degradation rate of the microbial strain with acid added (Gordonia nitida NP1; 90 ppm and 900 ppm, initial diesel 15,000 ppm and 20,000 ppm (FIGS. 10, 11)): great increase | change in oil degradation rate of the microbial strain with acid added (Gordonia nitida NP1; initial diesel 20,000 ppm): did not show an increase | effect of addition on growth of the microorganisms [1]: promotion of growth | oil biodegradation rate of the microbial strain with acid added [2]: about 70%

Reference: US20080020947A1, “Novel microorganisms having oil biodegradability and method for bioremediation of oil-contaminated soil” (priority 2006, published 2008)
